Measured values: EP2308883A1, “New derivatives of thieno[2,3-b]pyridine and 5,6,7,8 tetrahydrothieno[2,3 b]quinoline in particular useful in the treatment of malaria” (priority 2009, dated 2011)
Read-outs that look alike come from different tables or passages of the source.

Assays:
Type in all cases: biochemical
[1] = molecular target: T1, PfGSK-3 (Plasmodium falciparum, UniProt O77344); experiment: Kinase assay with recombinant (His)6-tagged PfGSK3, GS-1 peptide and [γ-33P] ATP; details: for anti-PfGSK-3 IC50 values: result in words
T1 construct: His6; made in house; host or cells: Escherichia coli TOP 10
T1 sequence (O77344 1-440): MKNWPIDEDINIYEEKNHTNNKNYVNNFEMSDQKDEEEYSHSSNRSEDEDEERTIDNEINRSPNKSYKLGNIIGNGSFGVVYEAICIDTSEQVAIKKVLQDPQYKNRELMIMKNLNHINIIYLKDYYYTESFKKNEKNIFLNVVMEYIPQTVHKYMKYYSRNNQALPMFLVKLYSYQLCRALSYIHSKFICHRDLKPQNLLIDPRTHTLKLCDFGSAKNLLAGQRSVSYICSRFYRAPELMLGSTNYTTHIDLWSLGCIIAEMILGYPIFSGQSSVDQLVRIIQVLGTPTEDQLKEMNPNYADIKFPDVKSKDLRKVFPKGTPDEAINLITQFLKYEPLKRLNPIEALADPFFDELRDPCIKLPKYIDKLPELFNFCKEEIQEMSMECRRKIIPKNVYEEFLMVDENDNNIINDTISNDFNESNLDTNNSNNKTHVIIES
Procedure: Escherichia coli strain (TOP 10) containing a plasmid encoding PfGSK3 with six histidines (pBAD-Thio-TOPO, Invitrogen) were cultured into 500 ml of LB medium containing 100 µg/ml ampicillin, at 37°C, under shaking (250 rpm) until OD600 of 0.5 was reached. Expression was induced with 0.5 ml of 20% arabinose (0.02% final concentration). The culture was grown at 37°C with shaking for 4 hours. Cells were harvested by centrifugation at 9000 rpm for 10 min. The bacterial pellet was stored frozen at -80°C until further processing. For proteins extraction, pellet was resuspended in 10 ml of lysis buffer (50 mM NaH2PO4 pH 8.0, 300 mM NaCl, 10 mM imidazole) with the addition of protease inhibitors (complete EDTA-free, Roche) and lysozyme ([…] final). Cells were disrupted by sonication and the cell lysate was centrifuged at 24000 rpm for 30 min at 4°C. The recombinant PfGSK3 protein was purified by Immobilized Metal Affinity Chromatography according to a batch procedure on 1 ml of Nickel affinity resin (Ni-NTA agarose beads, Qiagen). Beads were washed four times with 10 ml of wash buffer (50 mM NaH2PO4 pH 8.0, 300 mM NaCl, 30 mM imidazole). Protein was eluted with one volume of elution buffer (50 mM NaH2PO4 pH 8.0, 300 mM NaCl, 250 mM imidazole, 10% glycerol).
Both porcine GSK3 and PfGSK3 were assayed with 40 µM GS-1 peptide, a specific GSK-3 substrate, ([…]pEDEEE, synthesized by the Peptide Synthesis Unit, Institute of Biomolecular Sciences, University of Southampton, U.K.), in buffer A (25 mM Tris-HCl pH 7.5, 10 mM MgC12, 1 mM EGTA, 1 mM DTT, 50 µg heparin/ml, 0.5 mg BSA/ml) in the presence of 15 µM [γ-^33P] ATP (3000 Ci/mmol; 1 mCi/ml) in a final volume of 30 µl. After 30 min. incubation at 30°C, 25 µl aliquots of supernatant were spotted onto 2.5 x 3 cm pieces of Whatman P81 phosphocellulose paper, and, 20 sec. later, the filters were washed five times (for at least 5 min. each time) in 1 % phosphoric acid. The wet filters were counted in the presence of 1 ml ACS (Amersham) scintillation fluid. The kinase activity was expressed in pmoles phosphate incorporated in GS-1 or in percentage of the maximal activity.

[2] = molecular target: T2, GSK-3 α (Homo sapiens, UniProt P49840); experiment: Species specificity: recombinant tagged GSK-3 orthologue kinase assay; details: calculated from dose-response curves; -(100) taken as no inhibition at 100
T2 construct: made in house
T2 sequence (P49840 whole entry): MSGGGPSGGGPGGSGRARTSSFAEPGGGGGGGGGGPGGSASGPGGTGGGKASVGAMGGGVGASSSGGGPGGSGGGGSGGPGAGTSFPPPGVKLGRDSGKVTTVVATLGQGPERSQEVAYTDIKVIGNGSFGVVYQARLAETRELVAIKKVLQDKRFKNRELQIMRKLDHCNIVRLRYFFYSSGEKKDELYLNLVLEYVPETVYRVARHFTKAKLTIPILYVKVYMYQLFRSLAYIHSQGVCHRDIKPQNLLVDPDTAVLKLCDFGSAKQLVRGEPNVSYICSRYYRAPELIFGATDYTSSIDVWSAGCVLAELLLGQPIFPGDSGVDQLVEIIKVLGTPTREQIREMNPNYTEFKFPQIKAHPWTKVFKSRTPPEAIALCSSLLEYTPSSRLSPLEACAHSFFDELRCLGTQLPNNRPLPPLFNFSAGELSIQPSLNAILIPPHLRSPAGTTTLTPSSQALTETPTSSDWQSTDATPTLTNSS
From the text: (§1) Given the strong conservation of GSK-3 across evolution and the surprising selectivity of the compounds according to the present invention towards PfGSK-3 versus mammalian GSK-3, a selection of 12 GSK-3 orthologues of various species chosen on the "tree of life" analyzed. The species belong to the Apicomplexa (P. falciparum, P. vivax, P. knowlesi and P. berghei (Gardner, M.J. et al. Genome sequence of the human malaria parasite Plasmodium falciparum. Nature 419, 498-511 (2002); Carlton, J.M. et al. Comparative genomics of the neglected human malaria parasite Plasmodium vivax. Nature 455, 799-803 (2008); Pain, A. et al. The genome of the simian and human malaria parasite Plasmodium knowlesi. Nature 455, 799-803 (2008).). Toxoplasma gondii (Qin, C.L., Tang, J. and Kim, K. Cloning and in vitro expression of TPK3, a Toxoplasma gondii homologue of shaggy/glycogen synthase kinase-3 kinases. Mol. Biochem. Parasitol. 93, 273-283 (1998)), Cryptosporidium parvum.
(§2) Following PCR amplification from cDNA libraries or direct synthesis based on databases sequences, the GSK-3 genes were inserted in appropriate expression vectors and recombinant, tagged kinases were expressed, affinity purified and assayed in the presence of up to 10-100µM of each compound of formula (I) according to the present invention and a selection of the PfGSK-3 inhibitors.

[3] = molecular target: T3, GSK-3 (Dictyostelium discoideum, UniProt P51136); experiment: as above
T3 construct: made in house
T3 sequence (P51136 whole entry): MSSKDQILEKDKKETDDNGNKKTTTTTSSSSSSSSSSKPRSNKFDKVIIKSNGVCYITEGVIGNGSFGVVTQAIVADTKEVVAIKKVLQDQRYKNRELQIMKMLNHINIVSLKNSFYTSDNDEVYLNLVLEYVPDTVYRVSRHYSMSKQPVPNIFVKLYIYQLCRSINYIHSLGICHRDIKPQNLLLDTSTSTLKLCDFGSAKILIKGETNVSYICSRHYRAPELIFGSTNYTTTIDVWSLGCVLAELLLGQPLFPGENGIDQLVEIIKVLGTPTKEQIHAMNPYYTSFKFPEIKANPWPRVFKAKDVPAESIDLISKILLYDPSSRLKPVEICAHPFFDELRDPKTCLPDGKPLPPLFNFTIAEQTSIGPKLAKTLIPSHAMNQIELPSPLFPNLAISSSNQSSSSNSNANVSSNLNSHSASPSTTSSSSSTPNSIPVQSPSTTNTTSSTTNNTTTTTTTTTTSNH
From the text: as §1, §2

[4] = molecular target: GSK-3 α/β; experiment: as above; details: calculated from dose-response curves; -(100) taken as no inhibition at 100; read-out: IC50 Sus scrofa (GSK-3 α/β)
From the text: as §1, §2

[5] = molecular target: T4, GSK-3 (Plasmodium falciparum, UniProt O77344); experiment: as above
T4 construct: made in house
From the text: as §1, §2

[6] = molecular target: T5, GSK-3 (Plasmodium knowlesi, UniProt A0A679KU36); experiment: as above
T5 sequence (A0A679KU36 1-473): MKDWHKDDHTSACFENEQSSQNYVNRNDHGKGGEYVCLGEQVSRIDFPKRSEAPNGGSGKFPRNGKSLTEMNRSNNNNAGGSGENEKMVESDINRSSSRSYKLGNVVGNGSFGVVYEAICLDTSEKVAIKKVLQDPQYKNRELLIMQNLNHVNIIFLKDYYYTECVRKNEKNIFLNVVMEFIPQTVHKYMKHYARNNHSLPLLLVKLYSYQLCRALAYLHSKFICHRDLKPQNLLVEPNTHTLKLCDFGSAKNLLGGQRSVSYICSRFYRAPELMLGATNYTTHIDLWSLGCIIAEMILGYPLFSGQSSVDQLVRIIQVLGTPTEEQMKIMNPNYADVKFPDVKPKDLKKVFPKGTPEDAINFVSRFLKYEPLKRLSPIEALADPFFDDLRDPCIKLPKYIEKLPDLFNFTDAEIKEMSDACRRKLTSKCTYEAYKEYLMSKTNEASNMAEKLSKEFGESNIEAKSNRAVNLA

[7] = molecular target: T6, GSK- 3 β (Homo sapiens, UniProt P49841); experiment: as above; details: calculated from dose-response curves; -(100) taken as no inhibition at 100
T6 construct: made in house
T6 sequence (P49841 whole entry): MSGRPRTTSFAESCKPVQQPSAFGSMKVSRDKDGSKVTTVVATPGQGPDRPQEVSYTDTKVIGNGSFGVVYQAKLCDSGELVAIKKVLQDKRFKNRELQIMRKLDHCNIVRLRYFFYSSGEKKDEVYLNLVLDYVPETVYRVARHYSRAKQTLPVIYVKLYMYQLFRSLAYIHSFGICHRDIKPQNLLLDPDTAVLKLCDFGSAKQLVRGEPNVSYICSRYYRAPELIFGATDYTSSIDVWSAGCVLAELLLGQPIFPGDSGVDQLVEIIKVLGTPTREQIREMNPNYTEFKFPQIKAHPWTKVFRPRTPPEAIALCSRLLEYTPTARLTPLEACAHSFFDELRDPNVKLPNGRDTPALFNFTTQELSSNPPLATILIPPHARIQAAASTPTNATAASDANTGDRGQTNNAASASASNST
From the text: as §1, §2

[8] = read-out: IC50 Plasmodium knowlesi; calculated from dose-response curves
[9] = calculated from dose-response curves; read-out: IC50 Plasmodium knowlesi
[10] = unit only in the introducing sentence b99, not in the table, read-out: IC50 PfGSK-3

Compound | anti-PfGSK-3 IC50 values [1] | IC50 [2] | IC50 [3] | IC50 [4] | IC50 [5] | IC50 [6, 8] | IC50 [7] | IC50 [6, 9] | IC50 ([5]; read-out: IC50 Plasmodium falciparum, calculated from dose-response curves) | IC50 ([1]; read-out: PfGSK-3 IC50) | IC50 [1, 10]
COc1ccccc1-c1c(C#N)c(N)nc2sc(C(=O)c3ccccc3)c(N)c12 [Compound 2, 3,6-diamino-2-benzoyl-4-(2-methoxyphenyl)thieno[2,3-b]pyridine-5-carbonitrile] | particularly good | > 100 µM | > 100 µM | > 100 µM | 7.8 µM | 95 µM |  |  |  |  | 
N#Cc1c(N)nc2sc(C(=O)c3cccc(Cl)c3)c(N)c2c1-c1ccccc1Br [Compound 20, 3,6-diamino-4-(2-bromophenyl)-2-(3-chlorobenzoyl)thieno[2,3-b]pyridine-5-carbonitrile] | particularly good | > 100 µM | 80 µM | 5.6 µM | 0.47 µM |  | 4 µM | 1.45 µM |  |  | 
N#Cc1c(N)nc2sc(C(=O)c3cccc(Cl)c3)c(N)c2c1-c1ccccc1I [Compound 14, 3,6-diamino-2-(3-chlorobenzoyl)-4-(2-iodophenyl)thieno[2,3-b]pyridine-5-carbonitrile] | particularly good | > 100 µM | > 100 µM | > 100 µM |  |  | 50 µM | 2.75 µM | 101 µM |  | 
N#Cc1c(N)nc2sc(C(=O)c3cccc(Cl)c3)c(N)c2c1-c1ccccc1Cl [Compound 22, 3,6-diamino-2-(3-chlorobenzoyl)-4-(2-chlorophenyl)thieno[2,3-b]pyridine-5-carbonitrile] | particularly good | > 100 µM | > 10 µM | > 10 µM | 0.41 µM | 2.45 µM | 3.3 µM |  |  | 0.47 µM | 0.06 µM
N#Cc1cccc(C(=O)c2sc3nc(N)c(C#N)c(-c4ccccc4Cl)c3c2N)c1 [Compound 26, 3,6-diamino-4-(2-chlorophenyl)-2-(3-cyanobenzoyl)thieno[2,3-b]pyridine-5-carbonitrile] | particularly good | > 25 µM | > 100 µM | 22 µM | 0.21 µM |  | 8.1 µM | 6.5 µM |  |  | 0.5 µM
